# According to US20250066341A1 (CHIESI FARMACEUTICI S.P.A., priority 2021, published 2025):
# Biological target: T1, human recombinant LPA1 expressed in CHO cells (Homo sapiens, UniProt Q92633)
# T1 construct: expressed in transfected cells; host or cells: CHO cells (CHO-hLPA1 cell line)
# Assay: FLIPR calcium mobilization assay, LPA1 antagonism in CHO-hLPA1 cells
# Format: cell-based
# Details: inhibition of LPA EC80 Ca2+ response, 30 min pre-incubation, expressed as range of activity
# Procedure: The effectiveness of compounds of the present invention as LPA1 antagonist can be determined at the human recombinant LPA1 expressed in CHO cells, using a FLIPR assay in 384 well format.
# CHO-hLPA1 cell lines are cultured in a humidified incubator at 5% C02 in DMEM/F-12 (1:1) MIXTURE with 2 mM Glutamax, supplemented with 10% of Foetal Bovine Serum, 1 mM Sodium Pyruvate, 11 mM Hepes and 1× Penicillin/Streptomycin. […] Serial dilutions (1:3 or 1:4, 11 points CRC) of compounds are performed in 100% DMSO at 200× the final concentration. […] The final concentration of DMSO in the assay will be 0.5% in each well. Medium is removed by aspiration and cells are then incubated with 30 μl of a loading solution containing 5 μM of the cytoplasmic Ca2+ indicator Cal-520 AM in Assay Buffer containing 2.5 mM probenecid for 30 min at 37° C. incubator (cell loading). The loaded cell plates are transferred into the FLIPR instrument and calcium responses are monitored during the on-line addition protocols. For testing of compounds, after the cell loading, 10 μl/well of 4× antagonists' solution was added onto the cells. After 30 min pre-incubation (at 37° C.), 10 μl/well of 5× concentrated LPA EC80 was added and Ca2+ mobilization responses was followed during the on-line addition protocol. Intracellular peak fluorescence values subtracted by baseline fluorescence are exported and analysed to determine IC50 values, respectively. The calcium response is expressed as percentage of the maximal inhibition of the EC80 agonist response.
# The raw data (peak height expressed as relative fluorescence units) are normalized and transformed into “percent of inhibition”. Curve fitting and pIC50 (−LogIC50) estimations are carried out using a four-parameter logistic model using XLfit Software.
# T1 sequence (Q92633 whole entry): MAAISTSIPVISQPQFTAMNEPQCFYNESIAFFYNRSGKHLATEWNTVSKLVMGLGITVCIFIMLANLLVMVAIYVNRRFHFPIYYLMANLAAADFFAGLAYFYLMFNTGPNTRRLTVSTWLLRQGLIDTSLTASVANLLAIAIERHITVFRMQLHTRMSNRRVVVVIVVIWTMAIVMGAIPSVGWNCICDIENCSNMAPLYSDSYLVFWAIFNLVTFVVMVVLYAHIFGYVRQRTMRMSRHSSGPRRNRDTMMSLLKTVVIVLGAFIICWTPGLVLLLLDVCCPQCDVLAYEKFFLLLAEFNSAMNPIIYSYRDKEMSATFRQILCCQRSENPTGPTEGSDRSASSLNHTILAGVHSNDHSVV
row,IC50 [nM],SMILES
1,< 50,"Cc1nc(-c2onc(C)c2Nc2cncc(C3CCCC3)n2)ccc1NC(=O)[C@H]1CCCC[C@@H]1C(=O)O [Compound 11, (1S,2S)-2-((6-(4-((6-cyclopentylpyrazin-2-yl)amino)-3-methylisoxazol-5-yl)-2-methylpyridin-3-yl)carbamoyl)cyclohexane-1-carboxylic acid]"
2,50 to 250,"Cc1nc(-c2onc(C)c2Nc2cncc(CC(C)C)n2)ccc1NC(=O)[C@H]1CCCC[C@@H]1C(=O)O [Compound 12, (1S,2S)-2-((6-(4-((6-isobutylpyrazin-2-yl)amino)-3-methylisoxazol-5-yl)-2-methylpyridin-3-yl)carbamoyl)cyclohexane-1-carboxylic acid]"
3,50 to 250,"Cc1nc(-c2onc(C)c2Nc2cncc(C(C)C)n2)ccc1NC(=O)[C@H]1CCCC[C@@H]1C(=O)O [Compound 13, (1S,2S)-2-((6-(4-((6-isopropylpyrazin-2-yl)amino)-3-methylisoxazol-5-yl)-2-methylpyridin-3-yl)carbamoyl)cyclohexane-1-carboxylic acid]"
4,50 to 250,"Cc1nc(-c2onc(C)c2Nc2cncc(-c3ccccn3)n2)ccc1NC(=O)[C@H]1CCCC[C@@H]1C(=O)O [Compound 14, (1S,2S)-2-((2-methyl-6-(3-methyl-4-((6-(pyridin-2-yl)pyrazin-2-yl)amino)isoxazol-5-yl)pyridin-3-yl)carbamoyl)cyclohexane-1-carboxylic acid]"
5,50 to 250,"Cc1nc(-c2onc(C)c2Nc2cncc(NC3CCCC3)n2)ccc1NC(=O)[C@H]1CCCC[C@@H]1C(=O)O [Compound 15, (1S,2S)-2-((6-(4-((6-(cyclopentylamino)pyrazin-2-yl)amino)-3-methylisoxazol-5-yl)-2-methylpyridin-3-yl)carbamoyl)cyclohexane-1-carboxylic acid]"
6,50 to 250,"Cc1nc(-c2cnn(C)c2CNc2nccc(OC(C)C)n2)ccc1NC(=O)[C@H]1CCCC[C@@H]1C(=O)O [Compound 17, (1S,2S)-2-((6-(5-(((4-isopropoxypyrimidin-2-yl)amino)methyl)-1-methyl-1H-pyrazol-4-yl)-2-methylpyridin-3-yl)carbamoyl)cyclohexane-1-carboxylic acid]"
7,< 50,Cc1nc(-c2cnn(C)c2CNc2nccc(C3CCCCC3)n2)ccc1NC(=O)[C@H]1CCCC[C@@H]1C(=O)O [Compound 18]
8,< 50,"Cc1nc(-c2cnn(C)c2CNc2nccc(-c3ccccc3)n2)ccc1NC(=O)[C@H]1CCCC[C@@H]1C(=O)O [Compound 19, (1S,2S)-2-((2-methyl-6-(1-methyl-5-(((4-phenylpyrimidin-2-yl)amino)methyl)-1H-pyrazol-4-yl)pyridin-3-yl)carbamoyl)cyclohexane-1-carboxylic acid]"
9,50 to 250,"CC(C)Oc1cncc(Nc2c(-c3ccc(NC(=O)[C@H]4CCCC[C@@H]4C(=O)O)cc3)cnn2C)n1 [Compound 20, (1S,2S)-2-((4-(5-((6-isopropoxypyrazin-2-yl)amino)-1-methyl-1H-pyrazol-4-yl)phenyl)carbamoyl)cyclohexane-1-carboxylic acid]"
10,250 to 600,"Cc1nc(-c2cnn(C)c2COC(=O)N(C)CCC(C)C)ccc1NC(=O)[C@H]1CCCC[C@@H]1C(=O)O [Compound 21, (1S,2S)-2-((6-(5-(((isopentyl(methyl)carbamoyl)oxy)methyl)-1-methyl-1H-pyrazol-4-yl)-2-methylpyridin-3-yl)carbamoyl)cyclohexane-1-carboxylic acid]"
11,< 50,"Cc1nc(-c2onc(C)c2NS(=O)(=O)CCc2ccccc2Cl)ccc1NC(=O)[C@H]1CCCC[C@@H]1C(=O)O [Compound 22, (1S,2S)-2-((6-(4-((2-(2-chlorophenyl)ethyl)sulfonamido)-3-methylisoxazol-5-yl)-2-methylpyridin-3-yl)carbamoyl)cyclohexane-1-carboxylic acid]"
12,50 to 250,"Cc1nc(-c2onc(C)c2NS(=O)(=O)CCc2ccccc2)ccc1NC(=O)[C@H]1CCCC[C@@H]1C(=O)O [Compound 23, (1S,2S)-2-((2-methyl-6-(3-methyl-4-((2-phenylethyl)sulfonamido)isoxazol-5-yl)pyridin-3-yl)carbamoyl)cyclohexane-1-carboxylic acid]"
13,50 to 250,"Cc1nc(-c2onc(C)c2NS(=O)(=O)CCc2ccccc2F)ccc1NC(=O)[C@H]1CCCC[C@@H]1C(=O)O [Compound 24, (1S,2S)-2-((6-(4-((2-(2-fluorophenyl)ethyl)sulfonamido)-3-methylisoxazol-5-yl)-2-methylpyridin-3-yl)carbamoyl)cyclohexane-1-carboxylic acid]"
14,50 to 250,"Cc1nc(-c2onc(C)c2NS(=O)(=O)CCOc2ccc(F)cc2)ccc1NC(=O)[C@H]1CCCC[C@@H]1C(=O)O [Compound 25, (1S,2S)-2-((6-(4-((2-(4-fluorophenoxy)ethyl)sulfonamido)-3-methylisoxazol-5-yl)-2-methylpyridin-3-yl)carbamoyl)cyclohexane-1-carboxylic acid]"
15,< 50,"Cc1nc(-c2onc(C)c2NS(=O)(=O)CCCc2ccccc2)ccc1NC(=O)[C@H]1CCCC[C@@H]1C(=O)O [Compound 26, (1S,2S)-2-((2-methyl-6-(3-methyl-4-((3-phenylpropyl)sulfonamido)isoxazol-5-yl)pyridin-3-yl)carbamoyl)cyclohexane-1-carboxylic acid]"
16,50 to 250,Cc1nc(-c2onc(C)c2NS(=O)(=O)CCc2ccc(F)cc2)ccc1NC(=O)[C@H]1CCCC[C@@H]1C(=O)O [Compound 27]
17,< 50,"Cc1nc(-c2onc(C)c2NS(=O)(=O)CCc2ccc(Cl)cc2)ccc1NC(=O)[C@H]1CCCC[C@@H]1C(=O)O [Compound 28, (1S,2S)-2-((6-(4-((2-(4-chlorophenyl)ethyl)sulfonamido)-3-methylisoxazol-5-yl)-2-methylpyridin-3-yl)carbamoyl)cyclohexane-1-carboxylic acid]"
18,50 to 250,"Cc1nc(-c2onc(C)c2CNC(=O)OCc2ccccc2)ccc1NC(=O)[C@H]1CCCC[C@@H]1C(=O)O [Compound 32, (1S,2S)-2-((6-(4-((((benzyloxy)carbonyl)amino)methyl)-3-methylisoxazol-5-yl)-2-methylpyridin-3-yl)carbamoyl)cyclohexane-1-carboxylic acid]"
19,250 to 600,"Cc1nc(-c2onc(C)c2CNC(=O)O[C@H](C)c2ccccc2)ccc1NC(=O)[C@H]1CCCC[C@@H]1C(=O)O [Compound 35, (1S,2S)-2-((2-methyl-6-(3-methyl-4-(((((R)-1-phenylethoxy)carbonyl)amino)methyl)isoxazol-5-yl)pyridin-3-yl)carbamoyl)cyclohexane-1-carboxylic acid]"
20,50 to 250,"CCOc1ccnc(NCc2c(C)noc2-c2ccc(NC(=O)[C@H]3CCCC[C@@H]3C(=O)O)c(C)n2)n1 [Compound 36, (1S,2S)-2-((6-(4-(((4-ethoxypyrimidin-2-yl)amino)methyl)-3-methylisoxazol-5-yl)-2-methylpyridin-3-yl)carbamoyl)cyclohexane-1-carboxylic acid]"
21,< 50,"Cc1nc(-c2onc(C)c2CNc2nccc(-c3cccs3)n2)ccc1NC(=O)[C@H]1CCCC[C@@H]1C(=O)O [Compound 37, (1S,2S)-2-((2-methyl-6-(3-methyl-4-(((4-(thiophen-2-yl)pyrimidin-2-yl)amino)methyl)isoxazol-5-yl)pyridin-3-yl)carbamoyl)cyclohexane-1-carboxylic acid]"
22,< 50,"Cc1nc(-c2onc(C)c2CNc2nccc(-c3cccnc3)n2)ccc1NC(=O)[C@H]1CCCC[C@@H]1C(=O)O [Compound 38, (1S,2S)-2-((2-methyl-6-(3-methyl-4-(((4-(pyridin-3-yl)pyrimidin-2-yl)amino)methyl)isoxazol-5-yl)pyridin-3-yl)carbamoyl)cyclohexane-1-carboxylic acid]"
23,< 50,"Cc1nc(-c2onc(C)c2CNc2nccc(-c3ccsc3)n2)ccc1NC(=O)[C@H]1CCCC[C@@H]1C(=O)O [Compound 39, (1S,2S)-2-((2-methyl-6-(3-methyl-4-(((4-(thiophen-3-yl)pyrimidin-2-yl)amino)methyl)isoxazol-5-yl)pyridin-3-yl)carbamoyl)cyclohexane-1-carboxylic acid]"
24,< 50,"Cc1nc(-c2onc(C)c2CNc2nccc(-c3cccc4ccccc34)n2)ccc1NC(=O)[C@H]1CCCC[C@@H]1C(=O)O [Compound 40, (1S,2S)-2-((2-methyl-6-(3-methyl-4-(((4-(naphthalen-1-yl)pyrimidin-2-yl)amino)methyl)isoxazol-5-yl)pyridin-3-yl)carbamoyl)cyclohexane-1-carboxylic acid]"
25,< 50,"Cc1nc(-c2onc(C)c2CNc2nccc(-c3ccco3)n2)ccc1NC(=O)[C@H]1CCCC[C@@H]1C(=O)O [Compound 41, (1S,2S)-2-((6-(4-(((4-(furan-2-yl)pyrimidin-2-yl)amino)methyl)-3-methylisoxazol-5-yl)-2-methylpyridin-3-yl)carbamoyl)cyclohexane-1-carboxylic acid]"
